Test results published in PubChem BioAssay (NCI).
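Five concentrations, 48 hours, 96-well plates. TGI: total growth inhibition.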

Tests used:
Assay in all cases: NCI anticancer screen, dose series, 48 h
786-0 renal = system: 786-0 renal
A498 renal = system: A498 renal
A549 NSCLC = system: A549 NSCLC
ACHN renal = system: ACHN renal
BT-549 breast = system: BT-549 breast
CAKI-1 renal = system: CAKI-1 renal
CCRF-CEM leukemia = system: CCRF-CEM leukemia
COLO 205 colon = system: COLO 205 colon
DU-145 prostate = system: DU-145 prostate
EKVX NSCLC = system: EKVX NSCLC
HCC-2998 colon = system: HCC-2998 colon
HCT-116 colon = system: HCT-116 colon
HCT-15 colon = system: HCT-15 colon
HL-60(TB) leukemia = system: HL-60(TB) leukemia
HOP-62 NSCLC = system: HOP-62 NSCLC
HOP-92 NSCLC = system: HOP-92 NSCLC
HS 578T breast = system: HS 578T breast
IGROV1 ovarian = system: IGROV1 ovarian
K-562 leukemia = system: K-562 leukemia
KM12 colon = system: KM12 colon
M14 melanoma = system: M14 melanoma
MALME-3M melanoma = system: MALME-3M melanoma
MCF7 breast = system: MCF7 breast
MDA-MB-231 breast = system: MDA-MB-231 breast
MDA-MB-435 = system: MDA-MB-435
MDA-N = system: MDA-N
MOLT-4 leukemia = system: MOLT-4 leukemia
NCI-H226 lung = system: NCI-H226 lung
NCI-H23 lung = system: NCI-H23 lung
NCI-H460 lung = system: NCI-H460 lung
NCI-H522 lung = system: NCI-H522 lung
NCI/ADR-RES ovarian = system: NCI/ADR-RES ovarian
OVCAR-3 ovarian = system: OVCAR-3 ovarian
OVCAR-4 ovarian = system: OVCAR-4 ovarian
OVCAR-8 ovarian = system: OVCAR-8 ovarian
PC-3 prostate = system: PC-3 prostate
RPMI-8226 leukemia = system: RPMI-8226 leukemia
RXF 393 renal = system: RXF 393 renal
SF-268 CNS = system: SF-268 CNS
SF-295 CNS = system: SF-295 CNS
SF-539 CNS = system: SF-539 CNS
SK-MEL-2 melanoma = system: SK-MEL-2 melanoma
SK-MEL-28 melanoma = system: SK-MEL-28 melanoma
SK-MEL-5 melanoma = system: SK-MEL-5 melanoma
SK-OV-3 ovarian = system: SK-OV-3 ovarian
SN12C renal = system: SN12C renal
SNB-19 CNS = system: SNB-19 CNS
SNB-75 CNS = system: SNB-75 CNS
SR leukemia = system: SR leukemia
SW-620 colon = system: SW-620 colon
T-47D breast = system: T-47D breast
TK-10 renal = system: TK-10 renal
U251 CNS = system: U251 CNS
UACC-257 melanoma = system: UACC-257 melanoma
UACC-62 melanoma = system: UACC-62 melanoma
UO-31 renal = system: UO-31 renal
HT29 colon = system: HT29 colon
LOX IMVI melanoma = system: LOX IMVI melanoma
OVCAR-5 ovarian = system: OVCAR-5 ovarian

**Q.** With `CN1CCc2ccccc2C1Cc1ccccc1NC(=O)c1sc2ccccc2c1Cl` (stereo not drawn) as the compound, how does the TGI (786-0 renal) read?
**A.** Its TGI is greater than 100 µM.

**Q.** What about the TGI (A498 renal) of the same compound?
**A.** The TGI was greater than 100 µM.

**Q.** What about the TGI (A549 NSCLC) of the same compound?
**A.** Its TGI is greater than 100 µM.

**Q.** And the TGI (ACHN renal)?
**A.** The TGI was greater than 100 µM.

**Q.** And the TGI (BT-549 breast)?
**A.** Its TGI is greater than 100 µM.

**Q.** What about the TGI (CAKI-1 renal) of the same compound?
**A.** The TGI was greater than 100 µM.

**Q.** What about the TGI (CCRF-CEM leukemia) of the same compound?
**A.** Its TGI is greater than 100 µM.

**Q.** And the TGI (COLO 205 colon)?
**A.** The TGI was greater than 100 µM.

**Q.** What about the TGI (DU-145 prostate) of the same compound?
**A.** Its TGI is greater than 100 µM.

**Q.** And the TGI (EKVX NSCLC)?
**A.** Its TGI is greater than 100 µM.

**Q.** What about the TGI (HCC-2998 colon) of the same compound?
**A.** The TGI was greater than 100 µM.

**Q.** And the TGI (HCT-116 colon)?
**A.** Its TGI is greater than 100 µM.

**Q.** And the TGI (HCT-15 colon)?
**A.** The TGI was greater than 100 µM.

**Q.** And the TGI (HL-60(TB) leukemia)?
**A.** The TGI was greater than 100 µM.

**Q.** What about the TGI (HOP-62 NSCLC) of the same compound?
**A.** Its TGI is greater than 100 µM.

**Q.** What about the TGI (HOP-92 NSCLC) of the same compound?
**A.** Its TGI is greater than 100 µM.

**Q.** And the TGI (HS 578T breast)?
**A.** The TGI was greater than 100 µM.

**Q.** What about the TGI (IGROV1 ovarian) of the same compound?
**A.** The TGI was greater than 100 µM.

**Q.** And the TGI (K-562 leukemia)?
**A.** The TGI was greater than 100 µM.

**Q.** And the TGI (KM12 colon)?
**A.** The TGI was greater than 100 µM.

**Q.** What about the TGI (M14 melanoma) of the same compound?
**A.** The TGI was greater than 100 µM.

**Q.** What about the TGI (MALME-3M melanoma) of the same compound?
**A.** Its TGI is greater than 100 µM.

**Q.** What about the TGI (MCF7 breast) of the same compound?
**A.** The TGI was greater than 100 µM.

**Q.** What about the TGI (MDA-MB-231 breast) of the same compound?
**A.** Its TGI is greater than 100 µM.

**Q.** What about the TGI (MDA-MB-435) of the same compound?
**A.** Its TGI is greater than 100 µM.

**Q.** And the TGI (MDA-N)?
**A.** Its TGI is greater than 100 µM.

**Q.** And the TGI (MOLT-4 leukemia)?
**A.** The TGI was greater than 100 µM.

**Q.** What about the TGI (NCI-H226 lung) of the same compound?
**A.** The TGI was greater than 100 µM.

**Q.** And the TGI (NCI-H23 lung)?
**A.** The TGI was greater than 100 µM.

**Q.** And the TGI (NCI-H460 lung)?
**A.** The TGI was greater than 100 µM.

**Q.** What about the TGI (NCI-H522 lung) of the same compound?
**A.** The TGI was greater than 100 µM.

**Q.** What about the TGI (NCI/ADR-RES ovarian) of the same compound?
**A.** Its TGI is greater than 100 µM.

**Q.** And the TGI (OVCAR-3 ovarian)?
**A.** The TGI was greater than 100 µM.

**Q.** What about the TGI (OVCAR-4 ovarian) of the same compound?
**A.** Its TGI is greater than 100 µM.

**Q.** And the TGI (OVCAR-8 ovarian)?
**A.** The TGI was greater than 100 µM.

**Q.** And the TGI (PC-3 prostate)?
**A.** Its TGI is greater than 100 µM.

**Q.** What about the TGI (RPMI-8226 leukemia) of the same compound?
**A.** The TGI was greater than 100 µM.

**Q.** What about the TGI (RXF 393 renal) of the same compound?
**A.** The TGI was greater than 100 µM.

**Q.** And the TGI (SF-268 CNS)?
**A.** The TGI was greater than 100 µM.

**Q.** And the TGI (SF-295 CNS)?
**A.** The TGI was greater than 100 µM.

**Q.** And the TGI (SF-539 CNS)?
**A.** The TGI was greater than 100 µM.

**Q.** And the TGI (SK-MEL-2 melanoma)?
**A.** Its TGI is greater than 100 µM.

**Q.** And the TGI (SK-MEL-28 melanoma)?
**A.** Its TGI is greater than 100 µM.

**Q.** What about the TGI (SK-MEL-5 melanoma) of the same compound?
**A.** The TGI was greater than 100 µM.

**Q.** And the TGI (SK-OV-3 ovarian)?
**A.** Its TGI is greater than 100 µM.

**Q.** What about the TGI (SN12C renal) of the same compound?
**A.** The TGI was greater than 100 µM.

**Q.** And the TGI (SNB-19 CNS)?
**A.** The TGI was greater than 100 µM.

**Q.** What about the TGI (SNB-75 CNS) of the same compound?
**A.** Its TGI is greater than 100 µM.

**Q.** What about the TGI (SR leukemia) of the same compound?
**A.** Its TGI is greater than 100 µM.

**Q.** What about the TGI (SW-620 colon) of the same compound?
**A.** Its TGI is greater than 100 µM.

**Q.** And the TGI (T-47D breast)?
**A.** The TGI was greater than 100 µM.

**Q.** What about the TGI (TK-10 renal) of the same compound?
**A.** Its TGI is greater than 100 µM.

**Q.** What about the TGI (U251 CNS) of the same compound?
**A.** The TGI was greater than 100 µM.

**Q.** What about the TGI (UACC-257 melanoma) of the same compound?
**A.** Its TGI is greater than 100 µM.

**Q.** And the TGI (UACC-62 melanoma)?
**A.** Its TGI is greater than 100 µM.

**Q.** And the TGI (UO-31 renal)?
**A.** The TGI was greater than 100 µM.

**Q.** What does the source list for `Cc1cc(C)c(/C=C2\C(=O)Nc3ccccc32)[nH]1`?
**A.** TGI (786-0 renal): > 100 µM; TGI (A498 renal): > 100 µM; TGI (A549 NSCLC): > 100 µM; TGI (ACHN renal): > 100 µM; TGI (BT-549 breast): > 100 µM; TGI (CAKI-1 renal): > 100 µM; TGI (CCRF-CEM leukemia): > 100 µM; TGI (COLO 205 colon): > 100 µM; TGI (DU-145 prostate): > 100 µM; TGI (EKVX NSCLC): > 100 µM; TGI (HCC-2998 colon): > 100 µM; TGI (HCT-116 colon): > 100 µM; TGI (HCT-15 colon): > 100 µM; TGI (HL-60(TB) leukemia): > 34.1 µM; TGI (HOP-62 NSCLC): > 100 µM; TGI (HOP-92 NSCLC): > 100 µM; TGI (HS 578T breast): > 100 µM; TGI (HT29 colon): > 100 µM; TGI (K-562 leukemia): > 100 µM; TGI (LOX IMVI melanoma): > 100 µM; TGI (M14 melanoma): > 100 µM; TGI (MALME-3M melanoma): > 100 µM; TGI (MCF7 breast): > 100 µM; TGI (MDA-MB-231 breast): > 100 µM; TGI (MDA-MB-435): > 100 µM; TGI (MDA-N): > 100 µM; TGI (MOLT-4 leukemia): > 100 µM; TGI (NCI-H226 lung): > 100 µM; TGI (NCI-H23 lung): > 100 µM; TGI (NCI-H460 lung): > 100 µM; TGI (NCI-H522 lung): > 100 µM; TGI (NCI/ADR-RES ovarian): > 100 µM; TGI (OVCAR-3 ovarian): > 100 µM; TGI (OVCAR-4 ovarian): > 100 µM; TGI (OVCAR-5 ovarian): > 100 µM; TGI (OVCAR-8 ovarian): > 100 µM; TGI (PC-3 prostate): > 100 µM; TGI (RPMI-8226 leukemia): > 100 µM; TGI (RXF 393 renal): > 100 µM; TGI (SF-268 CNS): > 100 µM; TGI (SF-295 CNS): > 100 µM; TGI (SF-539 CNS): > 100 µM; TGI (SK-MEL-2 melanoma): > 100 µM; TGI (SK-MEL-28 melanoma): > 100 µM; TGI (SK-MEL-5 melanoma): > 100 µM; TGI (SK-OV-3 ovarian): > 100 µM; TGI (SN12C renal): > 100 µM; TGI (SNB-19 CNS): > 100 µM; TGI (SNB-75 CNS): > 100 µM; TGI (SR leukemia): > 100 µM; TGI (SW-620 colon): > 100 µM; TGI (T-47D breast): > 100 µM; TGI (TK-10 renal): > 100 µM; TGI (U251 CNS): > 100 µM; TGI (UACC-257 melanoma): > 100 µM; TGI (UACC-62 melanoma): > 100 µM; TGI (UO-31 renal): > 100 µM
